Experimental data as given in the supplement of paper PMC10307832.

Legend:
Test in all cases: relative viability (nuclei count vs DMSO), 5 days (fraction); higher = more cells survive
[1] = compound: C1=CC(=CC=C1C2=CC(=C(S2)NC(=O)N)C(=O)N)F [TPCA-1] + O=C(CCCCCCC(=O)Nc1ccccc1)NO [Vorinostat] (partner 1 µM)
How it was run: (§1)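 After 5 days of treatment, lung cancer cells in 1536-well plates were fixed and stained in a single step (final 0.05% Triton X-100, 1% formaldehyde, 1 ug/ml Hoechst) and their nuclei counted on 4× images. Treatment had been applied by pin tool the day after seeding as one drug alone or as a fixed anchor-drug dose with five library-drug doses (not always all listed) in √10 steps. Relative viability is the nuclei count of treated wells divided by that of vehicle wells, and values are medians of duplicate plates.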

[2] = compound: C[C@]12O[C@H](C[C@]1(O)CO)n1c3ccccc3c3c4c(c5c6ccccc6n2c5c31)CNC4=O [Lestaurtinib] + C[C@]1(O)C[C@@H](c2nc(-c3ccc4ccc(-c5ccccc5)nc4c3)c3c(N)nccn32)C1 [Linsitinib] (partner 1 µM)
How it was run: as §1

[3] = compound: C1=CC(=CC=C1C2=CC(=C(S2)NC(=O)N)C(=O)N)F [TPCA-1] + C[C@]1(O)C[C@@H](c2nc(-c3ccc4ccc(-c5ccccc5)nc4c3)c3c(N)nccn32)C1 [Linsitinib] (partner 1 µM)
How it was run: as §1

[4] = compound: C1=CC(=CC=C1C2=CC(=C(S2)NC(=O)N)C(=O)N)F [TPCA-1] + CC(=O)c1c(C)c2cnc(Nc3ccc(N4CCNCC4)cn3)nc2n(C2CCCC2)c1=O [Palbociclib] (partner 0.5 µM)
How it was run: as §1

Cell Line | relative viability ([1]; first compound 0.04 µM) | relative viability ([1]; first compound 0.1265 µM) | relative viability ([1]; first compound 0.4 µM) | relative viability ([1]; first compound 1.265 µM) | relative viability ([1]; first compound 4 µM) | relative viability ([2]; first compound 0.005 µM) | relative viability ([2]; first compound 0.01581 µM) | relative viability ([2]; first compound 0.05 µM) | relative viability ([2]; first compound 0.1581 µM) | relative viability ([2]; first compound 0.5 µM) | relative viability ([3]; first compound 0.04 µM) | relative viability ([3]; first compound 0.1265 µM) | relative viability ([3]; first compound 0.4 µM) | relative viability ([3]; first compound 1.265 µM) | relative viability ([3]; first compound 4 µM) | relative viability ([4]; first compound 0.04 µM) | relative viability ([4]; first compound 0.1265 µM) | relative viability ([4]; first compound 0.4 µM) | relative viability ([4]; first compound 1.265 µM) | relative viability ([4]; first compound 4 µM)
NCI-H1651 | 0.571 | 0.429 | 0.629 | 0.496 | 0.239 | 0.985 | 1.06 | 0.969 | 0.695 | 0.438 | 1.13 | 0.891 | 0.985 | 0.947 | 0.974 | 0.54 | 0.493 | 0.51 | 0.535 | 0.505
HCC-44 | 1.09 | 1.07 | 0.95 | 1.1 | 0.85 | 0.597 | 0.725 | 0.577 | 0.88 | 0.366 | 0.608 | 0.63 | 0.705 | 0.656 | 0.666 | 0.987 | 0.902 | 0.995 | 0.995 | 1.03
SW 1573 | 0.998 | 0.6 | 0.876 | 0.787 | 0.233 | 0.796 | 0.841 | 0.695 | 0.615 | 0.222 | 1.03 | 0.881 | 0.807 | 0.802 | 0.643 | 0.429 | 0.396 | 0.396 | 0.395 | 0.407
PC-3 [JPC-3] | 0.787 | 0.765 | 0.963 | 0.818 | 0.284 | 1.02 | 0.954 | 0.951 | 0.87 | 1 | 0.968 | 0.875 | 0.946 | 0.9 | 0.937 | 0.516 | 0.538 | 0.514 | 0.537 | 0.285
LOU-NH91 | 0.937 | 0.925 | 0.908 | 0.851 | 0.674 | 0.912 | 0.887 | 0.773 | 0.603 | 0.45 | 1.02 | 0.841 | 1 | 0.993 | 0.859 | 0.539 | 0.51 | 0.471 | 0.524 | 0.532
PC-14 | 0.838 | 0.802 | 0.802 | 0.639 | 0.448 | 0.933 | 1.04 | 0.543 | 0.613 | 0.578 | 0.939 | 0.978 | 0.926 | 0.966 | 0.692 | 0.502 | 0.57 | 0.557 | 0.518 | 0.4
NCI-H2087 | 0.734 | 0.759 | 0.911 | 0.629 | 0.266 | 1 | 0.923 | 0.709 | 0.648 | 0.275 | 0.989 | 0.938 | 1.03 | 0.836 | 0.553 | 0.253 | 0.241 | 0.218 | 0.237 | 0.155
LU99A | 0.546 | 0.463 | 0.544 | 0.457 | 0.316 | 0.46 | 0.443 | 0.3 | 0.284 | 0.21 | 0.486 | 0.45 | 0.513 | 0.341 | 0.306 | 0.468 | 0.365 | 0.407 | 0.369 | 0.258
